# In patent US20030229053A1, “Compounds and methods for the treatment or prevention of flavivirus infections” (Shire BioChem Inc., priority 2001, published 2003):
# Target: HCV NS5B RNA-dependent RNA polymerase (Hepatitis C virus genotype 1b, UniProt P26663)
# Experiment: In vitro RNA-dependent RNA polymerase assay (Assay 1), polyA/oligo dT, TCA precipitation
# Type: biochemical
# Details: not given
# Description: Purification of Recombinant NS5B Using Fast Protein Liquid Chromatography (FPLC):
# Soluble NS5B protein in the S3 fraction was diluted to lower the NaCl concentration to 300 mM, then it incubated batchwise with DEAE sepharose beads (Amersham-Pharmacia) for 2 hrs at 4° C., as described by Behrens et al. (1996). Unbound material was cleared by centrifugation for 15 min at 4° C., at 25,000 rpm using a SW41 rotor (Beckman). The supernatant was further diluted to lower the NaCl concentration to 200 mM and subsequently loaded, with a flow rate of 1 ml/min, on a 5 ml HiTrap® heparin column (Amersham-Pharmacia) connected to an FPLC® system (Amersham-Pharmacia). Bound proteins were eluted in 1 ml fractions, using a continuous NaCl gradient of 0.2 to 1 M, over a 25 ml volume. NS5B-containing fractions were identified by sodium dodecyl sulfate polyacrylamide gel electrophoresis (SDS-PAGE), followed by western blotting using the anti-NS5B antiserum at a dilution of 1:2000. Positive fractions were pooled and the elution buffer was exchanged against a 50 mM NaPO4 pH 7.0, 20% glycerol, 0.5% triton X-100 and 10 mM DTT, using a PD-10 column (Amersham-Pharmacia). The sample was then loaded onto a 1 ml HiTrap® SP column (Amersham-Pharmacia), with a flow rate of 0.1 ml/min. Bound proteins were eluted using a continuous 0 to 1 M NaCl gradient over a 15 ml volume. Eluted fractions were analyzed by SDS-PAGE and western blotting. Alternatively, proteins were visualized, following SDS-PAGE, by silver staining using the Silver Stain Plus kit (BioRad) as described by the manufacturer. […]
# In vitro RNA-dependent RNA Polymerase Assays Used to Evaluate Biaryl Analogues (Assay 1):
# RdRp assays were conducted using the homopolymeric template/primer polyA/oligo dT. All RdRp reactions were performed in a total volume of 50 μl, and in a basic buffer consisting of 20 mM Tris-HCl pH 7.5, 1 mM DTT, 50 mM NaCl, 5 mM MgCl2, 0.5 μCi […] (3000 Ci/mmol), 15 μM cold UTP and 20 U RNasin (Promega). Standard HCV RdRp reactions contained 200 ng of purified NS5B protein. PolyA RNAs (Amersham-Pharmacia) was resuspended at 400 ng/μl. The primer oligodT15 (Canadian life technologies) was diluted to a concentration of […] (7.6 ng/μl). Templates and primers were mixed volume to volume, denatured at 95° C. for 5 min and annealed at 37° C. for 10 min. Following a two hour incubation at 22° C., reactions were stopped by the addition of 100 μg of sonicated salmon sperm DNA (Life Technologies) and 1 ml of 10% trichloroacetic acid-0.5% tetrasodium pyrophosphate (TCA-PPi). Nucleic acids were precipitated at 4° C. for 30 min after which samples were filtered on GF/C glass microfiber filters (Millipore). Membranes were subsequently washed with 25 ml of a 1% TCA-0.1% PPi solution, then air dried. Incorporated radioactivity was quantified using a liquid scintillation counter (1450-Microbeta, Wallac). Results are shown in Table 1, in the column indicated as Assay 1.
# Sequence of HCV NS5B RNA-dependent RNA polymerase (P26663 2420-3010 limits assumed): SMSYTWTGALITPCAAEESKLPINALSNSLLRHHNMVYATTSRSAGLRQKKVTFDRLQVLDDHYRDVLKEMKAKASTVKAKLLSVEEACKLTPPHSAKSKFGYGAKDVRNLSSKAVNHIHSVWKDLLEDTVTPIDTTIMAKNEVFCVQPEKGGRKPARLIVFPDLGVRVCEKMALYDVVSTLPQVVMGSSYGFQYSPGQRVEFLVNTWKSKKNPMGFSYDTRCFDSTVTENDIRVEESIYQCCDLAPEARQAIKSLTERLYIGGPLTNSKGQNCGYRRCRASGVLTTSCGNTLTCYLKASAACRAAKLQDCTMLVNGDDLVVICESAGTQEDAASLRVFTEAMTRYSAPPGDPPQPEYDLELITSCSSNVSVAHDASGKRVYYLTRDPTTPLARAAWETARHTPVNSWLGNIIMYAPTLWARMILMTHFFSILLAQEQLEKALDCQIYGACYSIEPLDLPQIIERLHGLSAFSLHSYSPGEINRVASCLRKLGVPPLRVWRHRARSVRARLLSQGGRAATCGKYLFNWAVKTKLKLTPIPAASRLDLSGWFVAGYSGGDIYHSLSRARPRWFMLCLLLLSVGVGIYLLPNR
row,SMILES,IC50 [µM]
1,"O=C(O)[C@H](Cc1ccccc1)N(Cc1cccc(Br)c1)C(=O)c1ccc(Cl)cc1Br [compound #36, (2s)-2-[(3-Bromo-benzyl)-(2-bromo-4-chloro-benzoyl)-amino]-3-phenyl-propionic acid]",< 5
2,"Cc1cc(Cl)ccc1C(=O)N(Cc1cccc(-c2cc3ccccc3o2)c1)[C@@H](Cc1ccccc1)C(=O)O [compound #48, (2s)-2-[(3-Benzofuran-2-yl-benzyl)-(4-chloro-2-methyl-benzoyl)-amino]-3-phenyl-propionic acid]",< 5
3,"O=C(O)[C@H](Cc1ccccc1)N(Cc1cccc(F)c1)C(=O)c1ccc(Cl)cc1Cl [compound #51, (2s)-2-[(2,4-Dichloro-benzoyl)-(3-fluoro-benzyl)-amino]-3-phenyl-propionic acid]",< 5

# Same assay, conditions: polyA/oligo dT template/primer, 200 ng NS5B, 2 h at 22° C.; read-out: RNA pol Assay 1 IC50 (μm)
row,SMILES,IC50 [µM]
1,"COc1cc(C)c(S(=O)(=O)N(Cc2ccc(-c3cc4ccccc4o3)cc2)[C@@H](Cc2ccc(O)cc2)C(=O)O)c(C)c1C [compound #32, (2s)-2-[(4-Benzofuran-2-yl-benzyl)-(4-methoxy-2,3,6-trimethyl-benzenesulfonyl)-amino]-3-(4-hydroxy-phenyl)-propionic acid]",< 5
2,"O=C(O)[C@H](Cc1ccc(O)cc1)N(Cc1ccc(-c2cc3ccccc3o2)cc1)C(=O)c1ccc(Cl)cc1Cl [compound #33, (2s)-2-[(4-Benzofuran-2-yl-benzyl)-(2,4-dichloro-benzoyl)-amino]-3-(4-hydroxy-phenyl)-propionic acid]",< 5
3,"Cc1cc(Cl)ccc1C(=O)N(Cc1cccc(Br)c1)[C@@H](Cc1ccccc1)C(=O)O [compound #34, (2s)-2-[(3-Bromo-benzyl)-(4-chloro-2-methyl-benzoyl)-amino]-3-phenyl-propionic acid]",< 5
4,"O=C(O)[C@H](Cc1ccccc1)N(Cc1cccc(Br)c1)C(=O)c1ccc(Cl)cc1I [compound #35, (2s)-2-[(3-Bromo-benzyl)-(4-chloro-2-iodo-benzoyl)-amino]-3-phenyl-propionic acid]",< 5
5,"O=C(O)[C@H](Cc1ccccc1)N(Cc1cccc(-c2cc3ccccc3o2)c1)C(=O)Cc1ccc(Cl)cc1Cl [compound #37, (2s)-2-{(3-Benzofuran-2-yl-benzyl)-[(2,4-dichloro-phenyl)-acetyl]-amino}-3-phenyl-propionic acid]",< 5
6,"O=C(O)[C@H](Cc1ccccc1)N(Cc1ccc(-c2cc3ccccc3o2)cc1)c1ccc(Cl)cc1Cl [compound #38, (2s)-2-[(4-Benzofuran-2-yl-benzyl)-(2,4-dichloro-phenyl)-amino]-3-phenyl-propionic acid]",< 5
7,"O=C(O)[C@H](Cc1ccccc1)N(Cc1ccc2ccccc2c1)C(=O)c1ccc(Cl)cc1Cl [compound #39, (2s)-2-[(2,4-Dichloro-benzoyl)-naphthalen-2-ylmethyl-amino]-3-phenyl-propionic acid]",< 5
8,"O=C1c2ccccc2C(=O)c2cc(CN(C(=O)c3ccc(Cl)cc3Cl)[C@@H](Cc3ccccc3)C(=O)O)ccc21 [compound #40, (2s)-2-[(2,4-Dichloro-benzoyl)-(9,10-dioxo-9,10-dihydro-anthracen-2-ylmethyl)-amino]-3-phenyl-propionic acid]",< 5
9,"O=C(c1cccc(Cl)c1)c1cccc(CN(C(=O)c2ccc(Cl)cc2Cl)[C@@H](Cc2ccccc2)C(=O)O)c1 [compound #41, (2s)-2-[[3-(3-Chloro-benzoyl)-benzyl]-(2,4-dichloro-benzoyl)-amino]-3-phenyl-propionic acid]",< 5
10,"O=C(c1cccc(CN(C(=O)c2ccc(Cl)cc2Cl)[C@@H](Cc2ccccc2)C(=O)O)c1)c1ccc(F)cc1F [compound #42, (2s)-2-{(2,4-Dichloro-benzoyl)-[3-(2,4-difluoro-benzoyl)-benzyl]-amino}-3-phenyl-propionic acid]",< 5
11,"Cc1onc(-c2ccccc2Cl)c1C(=O)c1cccc(CN(C(=O)c2ccc(Cl)cc2Cl)[C@@H](Cc2ccccc2)C(=O)O)c1 [compound #43, (2s)-2-[{3-[3-(2-Chloro-phenyl)-5-methyl-isoxazole-4-carbonyl]-benzyl}-(2,4-dichloro-benzoyl)-amino]-3-phenyl-propionic acid]",< 5
12,"O=C(c1cccc(CN(C(=O)c2ccc(Cl)cc2Cl)[C@@H](Cc2ccccc2)C(=O)O)c1)c1ccc(Cl)cc1Cl [compound #44, (2s)-2-{(2,4-Dichloro-benzoyl)-[3-(2,4-dichloro-benzoyl)-benzyl]-amino}-3-phenyl-propionic acid]",< 5
13,"O=C(O)[C@H](Cc1ccccc1)N(Cc1cccc(-c2nc3ccccc3o2)c1)C(=O)c1ccc(Cl)cc1Cl [compound #45, (2s)-2-[(3-Benzooxazol-2-yl-benzyl)-(2,4-dichloro-benzoyl)-amino]-3-phenyl-propionic acid]",< 5
14,"CCc1cc(Cl)ccc1C(=O)N(Cc1cccc(Br)c1)[C@@H](Cc1ccccc1)C(=O)O [compound #46, (2s)-2-[(3-Bromo-benzyl)-(4-chloro-2-ethyl-benzoyl)-amino]-3-phenyl-propionic acid]",< 5
15,"O=C(O)[C@H](CC1CCCCC1)N(Cc1ccc(-c2cc3ccccc3o2)cc1)C(=O)c1ccc(Cl)cc1Cl [compound #47, (2s)-2-[(4-Benzofuran-2-yl-benzyl)-(2,4-dichloro-benzoyl)-amino]-3-cyclohexyl-propionic acid]",< 5
16,"O=C(O)[C@H](Cc1ccccc1)N(Cc1cccc(-c2cc3ccccc3o2)c1)C(=O)c1ccc(Cl)cc1Br [compound #49, (2s)-2-[(3-Benzofuran-2-yl-benzyl)-(2-bromo-4-chloro-benzoyl)-amino]-3-phenyl-propionic acid]",< 5
17,"C=Cc1cc(Cl)ccc1C(=O)N(Cc1cccc(Br)c1)[C@@H](Cc1ccccc1)C(=O)O [compound #50, (2s)-2-[(3-Bromo-benzyl)-(4-chloro-2-vinyl-benzoyl)-amino]-3-phenyl-propionic acid]",< 5
18,"O=C(O)[C@H](Cc1ccccc1)N(Cc1cccc(Cl)c1)C(=O)c1ccc(Cl)cc1Cl [compound #52, (2s)-2-[(3-Chloro-benzyl)-(2,4-dichloro-benzoyl)-amino]-3-phenyl-propionic acid]",< 5
19,"O=C(O)[C@H](Cc1ccccc1)N(Cc1ccc(-c2cccc(Cl)c2)o1)C(=O)c1ccccc1Cl [compound #55, (2s)-2-{(2-Chloro-benzoyl)-[5-(3-chloro-phenyl)-furan-2-ylmethyl]-amino}-3-phenyl-propionic acid]",5 to 20
20,"O=C(O)[C@H](Cc1ccccc1)N(Cc1ccc(-c2cccc(C(F)(F)F)c2)o1)C(=O)c1ccc(Cl)cc1Cl [compound #56, (2s)-2-{(2,4-Dichloro-benzoyl)-[5-(3-trifluoromethyl-phenyl)-furan-2-ylmethyl]-amino}-3-phenyl-propionic acid]",< 5
21,"O=C(O)[C@H](Cc1ccccc1)N(Cc1ccc(Br)o1)C(=O)c1ccc(Cl)cc1Cl [compound #57, (2s)-2-[(5-Bromo-furan-2-ylmethyl)-(2,4-dichloro-benzoyl)-amino]-3-phenyl-propionic acid]",5 to 20
22,"O=C(O)[C@H](Cc1ccccc1)N(Cc1ccc(-c2cc3ccccc3o2)o1)C(=O)c1ccc(Cl)cc1Cl [compound #58, (2s)-2-[(5-Benzofuran-2-yl-furan-2-ylmethyl)-(2,4-dichloro-benzoyl)-amino]-3-phenyl-propionic acid]",< 5
23,"O=C(O)[C@H](Cc1ccccc1)N(Cc1ccc(-c2ccc(Br)cc2)o1)C(=O)c1ccc(Cl)cc1Cl [compound #59, (2s)-2-[[5-(4-Bromo-phenyl)-furan-2-ylmethyl]-(2,4-dichloro-benzoyl)-amino]-3-phenyl-propionic acid]",< 5
24,"O=C(O)[C@H](Cc1ccccc1)N(Cc1ccc(-c2ccccc2Cl)o1)C(=O)c1ccc(Cl)cc1Cl [compound #60, (2s)-2-[[5-(2-Chloro-phenyl)-furan-2-ylmethyl]-(2,4-dichloro-benzoyl)-amino]-3-phenyl-propionic acid]",< 5
